Assay results: US20230203126A1, “A COMPOSITION COMPRISING S-ARRESTIN PEPTIDES” (WORG PHARMACEUTICALS (HANGZHOU) CO., LTD., priority 2019, published 2023)
Values joined by “and” are separate entries in the source; they are usually repeats but may differ in a detail not shown here. Equal entries are not always repeated. No end group written: not given here.

How the values were obtained:
[1] = system: S-Ag-induced cell activation (IFNy production of LN cells and splenocytes); experiment: Ex vivo tolerization experiment (DR3tg mice); type: in vivo; details: for reduction of S-Ag-induced cell activation (IFNy) in spleens: dose escalation to 15 nmol per peptide s.c., cocktail vs single peptide, vs control group, two independent experiments (FIG. 7); for reduction of S-Ag-induced cell activation (IFNy) in lymph nodes / reduction of S-Ag-induced cell activation (IFNy) in spleen: single peptide escalating dose s.c., vs PBS; for reduction of S-Ag-induced cell activation (IFNy) in lymph nodes: 10 days after immunization (FIG. 5A, 6A); for reduction of S-Ag-induced cell activation (IFNy) in spleen: 10 days after immunization (FIG. 5B, 6B)
Experimental: (§1) FIG. 5: 17JK alone induces tolerance towards S-Ag protein in DR3tg mice. Mice were injected subcutaneously in the flank with 0,1 µg/ml, 1 µg/ml and 10 µg/ml 17JK on days -15, -13 and -11, followed by 3 injections of 100 µg/ml on days -8, -6 and -4 (escalating dose regime). On day 0, mice were immunized subcutaneously at the base of the tail with antigen/CFA. Mice were sacrificed 10 days after immunization to measure activation of LN cells and splenocytes upon S-Ag restimulation. IFNy concentration was measured in the culture supernatant as an indication of cell activation. Data represent mean ± SEM of the concentration of IFNy for the PBS-treated mice (black lines) and 17JK-treated mice (grey lines). Two-way ANOVA was used to measure overall treatment effects on T cell activation. Dunnett’s multiple comparisons test was used and significant differences are indicated in the graphs (** p<0.01; *** p<0.001). The % inhibition of IFNy production as compared to the control group is indicated in the graphs. (A) Tolerization against S-Ag in LN. IFNy production expressed as IFNy concentration (pg/ml). (B) Tolerization against S-Ag in spleen. IFNy production expressed as IFN-y concentration (pg/ml). LN, lymph nodes. Data representative of 3 independent experiments.
as §1, with “FIG. 6: 15N3K alone induces” for “FIG. 5: 17JK alone induces”, “10 µg/ml 15N3K on days” for “10 µg/ml 17JK on days”, “lines) and 15N3K-treated mice (grey” for “lines) and 17JK-treated mice (grey”, “the graphs (* p<0.05; **** p<0.0001). The %” for “the graphs (** p<0.01; *** p<0.001). The %”, “Tolerization against SAg in spleen.” for “Tolerization against S-Ag in spleen.”
FIG. 7: Treatment with peptide cocktail ATX975 reduces S-Ag-induced immune cell activation in DR3tg mice more efficiently than treatment with 17JK or 15N3K alone. Mice were injected subcutaneously in the flank with 0.015 nmol, 0.15 nmol and 1.5 nmol of peptide on days -15, -13 and -11 respectively, followed by 3 injections of 15 nmol peptide on days -8, -6 and -4 (dose escalation schedule). For treatment with the cocktail (ATX975) containing 3 peptides, these doses were given per peptide (reaching a total top dose of 45 nmol peptide). On day 0, mice were immunized subcutaneously at the base of the tail with antigen/CFA. Mice were sacrificed 10 days after immunization to measure activation of splenocytes upon SAg restimulation. Data represent mean ± SEM of the IFNy concentration for the control-treated mice (black lines) and peptide-treated mice (grey lines). Two-way ANOVA was used to measure overall treatment effects on T cell activation. Dunnett’s multiple comparisons test was used and significant differences are indicated in the graphs (* p<0.05; ** p<0.01; *** p<0.001; **** p<0.0001 as compared to the control group; ^# p<0.05, ^#### p<0.0001 as compared to the ATX975 group). The % inhibition of IFNy production as compared to the control group is indicated in the graphs. (A) Tolerization against S-Ag […]. IFN-y production expressed as IFN-y concentration (pg/ml). (B) Tolerization against S-Ag in spleen. […]

[2] = biological target: HLA-DRA1*0101, DRB1*0101 (DR1) (Homo sapiens, UniProt P01903+P01911, A100R/D57E/F55L/F60I/F76Y/I96L/L162R/M171V/P40L/Q125E/R42F/V115G/Y59C); experiment: DR1
Experimental: (§2) Table printed on a drawing sheet, Figure 9
(§3) The patent's description of the figure: FIG. 9: Diverse patterns of in vitro peptide-MHC II binding for peptides 9K1, 17JK and 15N3K. Binding of peptides 9K1, 17JK and 15N3K to recombinant HLA-DRA1*0101, DRB1*0101 (DR1), DRB1*1501 (DR2), DRB1*0301 (DR3), DRB1*0401 (DR4), DRB1*1101 (DR11), DRB1*0405 (DR4*05) and DRB1*0901 (DR9) was assessed in vitro. IC50 values (µM) are presented and colour-coded per HLA-DR molecule. Low values (green) indicate strong binding, high values (red) indicate low(er) binding.
FIG. 9 depicts IC50 (µM) values of peptides 9K1K, 17JK and 15N3K binding to the indicated HLA-DR molecules and competing with a known competitor peptide. Values should be compared only within each HLA-DR molecule. Low IC50 values (green) indicate the strongest binder per HLA-DR molecule. Highest values per HLA-DR molecule (red) are indicative of the lowest binder for that HLA-DR molecule. Intermediate values are indicated in orange. […]
(§4) First copying reader's note: The sheet prints no unit; per the patent description the values are IC50 (µM) for peptide binding to the named HLA-DR molecules, with cell shading coding relative binding strength per HLA-DR molecule.
Where the first naming reader finds the target: description_of_the_figure: recombinant HLA-DRA1*0101, DRB1*0101 (DR1)

[3] = biological target: HLA-DRA1*0101, DRB1*0405 (DR4*05) (Homo sapiens, UniProt P01903+P01911, A100R/A169T/D86S/F76Y/I96L/K127E/L162R/M171V/N62H/P40V/Q125Y/R42H/S133A/S149N/S66Y/V115G/V209L/W38E); experiment: DR4*05
Experimental: as §2
Head of the field: DR4*05
as §3
FIG. 9 depicts IC50 (µM) values of peptides 9K1K, 17JK and 15N3K binding to the indicated HLA-DR molecules and competing with a known competitor peptide. Values should be compared only within each HLA-DR molecule. Low IC50 values (green) indicate the strongest binder per HLA-DR molecule. Highest values per HLA-DR molecule (red) are indicative of the lowest binder for that HLA-DR molecule. Intermediate values are indicated in orange. […] So, combining the peptides into a cocktail treatment, makes the treatment less restricted to a certain HLA-DR type.
as §4

Row | Substance | reduction of S-Ag-induced cell activation (IFNy) in spleens [1] | reduction of S-Ag-induced cell activation (IFNy) in lymph nodes [1] [%] | reduction of S-Ag-induced cell activation (IFNy) in spleen [1] [%] | IC50 [2] [µM] | IC50 [3] [µM]
1 | KKKVIFKKISRDKSVTIYLGKKK-NH2 [15N3K] | 74% | 61 | 72 |  | 
2 | KKKLTFRRDLYFSRVQVYKKK-NH2 [17JK] | 80% and 52% | 78 | 84 | 2.16 | 17.3
